Results taken from patent US8062995B2, “Dioxazine-substituted arylamides” (Bayer CropScience AG, priority 2005, dated 2011).

Legend:
[1] = system: Spodoptera exigua, resistant strain; assay: Spodoptera exigua test; resistant strain; assay type: in vivo; details: for Kill rate after 7d in %: resistant strain
Experimental: Spodoptera exigua Test; Resistant Strain
Solvent: 7 parts by weight of dimethylformamide
Emulsifier: 2 parts by weight of alkylaryl polyglycol ether
To produce a suitable preparation of active compound, 1 part by weight of active compound is mixed with the stated amounts of solvent and emulsifier and the concentrate is diluted with emulsifier-containing water to the desired concentration.
Cabbage leaves (Brassica oleracea) are treated by being dipped into the active compound preparation of the desired concentration and populated with caterpillars of the army worm (Spodoptera exigua, resistant strain) while the leaves are still moist.
After the desired period of time, the kill in % is determined. 100% means that all caterpillars have been killed; 0% means that none of the caterpillars have been killed.

[2] = system: green peach aphid (Myzus persicae); assay: Myzus test; oral; assay type: in vivo; details: for Kill rate after 5d in %: 100 ppm, oral
Experimental: Myzus Test; Oral Solvent: 80 parts by weight of acetone To produce a suitable preparation of active compound, 1 part by weight of active compound is mixed with the stated amounts of solvent and the concentrate is diluted with water to the desired concentration. Vessels are populated with all stages of the green peach aphid (Myzus persicae) which are treated by sucking the active compound preparation of the desired concentration. After the desired period of time, the activity in % is determined. 100% means that all aphids have been killed; 0% means that none of the aphids have been killed.

[3] = system: caterpillars of the diamondback moth (Plutella xylostella); assay: Plutella test (leaf dip); assay type: in vivo
Experimental: (§1) Plutella Test Solvent: 7 parts by weight of dimethylformamide Emulsifier: 2 parts by weight of alkylaryl polyglycol ether To produce a suitable preparation of active compound, 1 part by weight of active compound is mixed with the stated amounts of solvent and emulsifier and the concentrate is diluted with emulsifier-containing water to the desired concentration. Cabbages leaves (Brassica oleracea) are treated by being dipped into the active compound preparation of the desired concentration and populated with caterpillars of the diamondback moth (Plutella xylostella) while the leaves are still moist. After the desired period of time, the kill in % is determined. 100% means that all caterpillars have been killed; 0% means that none of the caterpillars have been killed.

[4] = system: larvae of the mustard beetle (Phaedon cochleariae); assay: Phaedon test (sprayed Chinese cabbage discs); assay type: in vivo
Experimental: (§2) Phaedon Test Solvents: 78 parts by weight of acetone • • 1.5 parts by weight of dimethylformamide Emulsifier: 0.5 part by weight of alkylaryl polyglycol ether To produce a suitable preparation of active compound, 1 part by weight of active compound is mixed with the stated amounts of solvents and emulsifier and the concentrate is diluted with emulsifier-containing water to the desired concentration. Discs of Chinese cabbage (Brassica pekinensis) are sprayed with an active compound preparation of the desired concentration and, after drying, populated with larvae of the mustard beetle (Phaedon cochleariae). After the desired period of time, the activity in % is determined. 100% means that all beetle larvae have been killed; 0% means that none of the beetle larvae have been killed.

[5] = system: caterpillars of the army worm (Spodoptera exigua); assay: Spodoptera exigua test (leaf dip); assay type: in vivo
Experimental: as §1, with “Spodoptera exigua” for “Plutella”, “Cabbage” for “Cabbages”, “army worm (Spodoptera exigua)” for “diamondback moth (Plutella xylostella)”

[6] = system: Spodoptera frugiperda larvae; assay: Spodoptera frugiperda test (treatment by watering); assay type: in vivo; details: for Kill rate after 14d in %: 20 ppm, treatment by watering
Experimental: Spodoptera frugiperda Test Solvent: 7 parts by weight of dimethylformamide Emulsifier: 2 parts by weight of alkylaryl polyglycol ether To produce a suitable preparation of active compound, 1 part by weight of active compound is mixed with the stated amounts of solvent and emulsifier and the concentrate is diluted with water to the desired concentration. Maize plants (Zea mays) are watered with an active compound preparation of the desired concentration and infected with Spodoptera frugiperda larvae. After the desired period of time, the kill in % is determined. 100% means that all larvae have been killed; 0% means that none of the larvae have been killed.

[7] = system: caterpillars of the cotton bollworm (Heliothis armigera); assay: Heliothis armigera test (leaf dip); assay type: in vivo
Experimental: as §1, with “Heliothis armigera” for “Plutella”, “Soya bean” for “Cabbages”, “(Glycine max.)” for “(Brassica oleracea)”, “cotton bollworm (Heliothis armigera)” for “diamondback moth (Plutella xylostella)”

[8] = system: caterpillars of the army worm (Spodoptera frugiperda); assay: Spodoptera frugiperda test (SPODFR spray treatment); assay type: in vivo; details: for Kill rate after 7d in %: spray treatment
Experimental: Spodoptera frugiperda Test (SPODFR Spray Treatment) Solvents: 78 parts by weight of acetone • • 1.5 parts by weight of dimethylformamide Emulsifier: 0.5 part by weight of alkylaryl polyglycol ether To produce a suitable preparation of active compound, 1 part by weight of active compound is mixed with the stated amounts of solvents and emulsifier and the concentrate is diluted with emulsifier-containing water to the desired concentration. Discs of maize leaves (Zea mays) are sprayed with an active compound preparation of the desired concentration and after drying populated with caterpillars of the army worm (Spodoptera frugiperda). After the desired period of time, the activity in % is determined. 100% means that all of the caterpillars have been killed; 0% means that none of the caterpillars have been killed.

[9] = logP determination by HPLC (reversed-phase C18), EEC Directive 79/831 Annex V.A8; assay type: physicochemical; details: HPLC reversed-phase C18, 43° C., acidic range pH 2.7
Experimental: The logP values given in the tables and Preparation Examples above are determined in accordance with EEC Directive 79/831 Annex V.A8 by HPLC (High Performance Liquid Chromatography) on a reversed-phase column (C 18). Temperature: 43° C. The determination by LC-MS in the acidic range is carried out at pH 2.7 using 0.1% aqueous formic acid and acetonitrile (contains 0.1% formic acid) as mobile phases; linear gradient from 10% acetonitrile to 95% acetonitrile. Calibration is carried out using unbranched alkan-2-ones (having 3 to 16 carbon atoms) with known logP values (determination of the logP values by the retention times using linear interpolation between two successive alkanones).

[10] = system: Diabrotica undecimpunctata; assay: Diabrotica undecimpunctata (DIABUN) test (eggs); assay type: in vivo
Experimental: Diabrotica undecimpunctata (DIABUN) Solvents: 1% of N-methylpyrrolidone (NMP) • 1% of diacetone alcohol Dye: brilliant sulphoflavin for staining the water To produce a suitable preparation of active compound, the active compound is mixed with the stated amounts of solvents and the concentrate is diluted with stained water to the desired concentration. The eggs (Diabrotica undecimpunctata) are treated with an active compound preparation of the desired concentration. After the desired period of time, the activity in % is determined. 100% means that all animals have been killed; 0% means that none of the animals have been killed.

[11] = system: green peach aphid (Myzus persicae); assay: Myzus test (MYZUPE spray treatment); assay type: in vivo; details: for Kill rate after 5d in %: 100 g/ha, spray treatment
Experimental: as §2, with “Myzus” for “Phaedon”, “Test (MYZUPE Spray Treatment)” for “Test”, “pekinensis), which are infested by all stages of the green peach aphid (Myzus persicae)” for “pekinensis)”, “concentration.” for “concentration and, after drying, populated with larvae of the mustard beetle (Phaedon cochleariae).”, “aphids” for “beetle larvae”

Row | SMILES | activity in the Spodoptera exigua test, resistant strain (in words) [1] | activity in the Myzus test, oral (in words) [2] | activity in the Plutella test (in words) [3] | activity in the Phaedon test (in words) [4] | activity in the Spodoptera exigua test (in words) [5] | Kill rate after 14d in % [6] | activity in the Heliothis armigera test (in words) [7] | activity in the Spodoptera frugiperda test, spray treatment (in words) [8] | Kill rate after 7d in % ([4]; 100 g/ha) | logP [9] | Kill rate after 7d in % ([8]; 100 g/ha) | activity in the Myzus test, spray treatment (in words) [11] | Kill rate after 5d in % [11] | Kill rate after 5d in % [2] | other results
1 | O=C(Nc1c(Cl)cc(Cl)cc1C1=NOCCO1)c1cc(C(F)(F)F)nn1-c1cccc(Cl)n1 [Example I-1-1] | good activity | good activity | good activity | good activity | good activity | 95% | good activity | good activity |  |  |  |  |  |  | Kill rate after 7d in % ([1]; 100 ppm): 100%; Kill rate after 7d in % ([3]; 100 ppm): 100%; Kill rate after 7d in % ([4]; 500 g/ha): 100%; Kill rate after 7d in % ([5]; 20 ppm): 100%; activity in the Spodoptera frugiperda test, watering (in words) [6]: good activity; Kill rate after 7d in % ([7]; 20 ppm): 100%; Kill rate after 7d in % ([8]; 500 g/ha): 100%
2 | Cc1cc(Cl)cc(C2=NOCCO2)c1NC(=O)c1cc(Br)nn1-c1ncccc1Cl [Example I-1-5] |  |  |  | good activity |  |  |  | good activity | 83% | 3.13 | 100% |  |  |  | activity in the Diabrotica undecimpunctata test (in words) [10]: good activity; Kill rate after 2-5d in % ([10]; 300 ppm, 2-5 d, eggs): 100%
3 | Cc1cc(Br)cc(C2=NOCCO2)c1NC(=O)c1cc(C(F)(F)F)nn1-c1ncccc1Cl [Example I-1-11] | good activity |  | good activity | good activity | good activity | 98% | good activity | good activity | 100% | 3.58 | 100% |  |  |  | Kill rate after 7d in % ([1]; 20 ppm): 80%; Kill rate after 7d in % ([3]; 20 ppm): 80%; Kill rate after 7d in % ([5]; 20 ppm): 100%; activity in the Spodoptera frugiperda test, watering (in words) [6]: good activity; Kill rate after 7d in % ([7]; 20 ppm): 100%
4 | Cc1cccc(C2=NOCCN2)c1NC(=O)c1cc(Cl)nn1-c1ncccc1Cl [Example I-1-17] | good activity |  | good activity | good activity | good activity | 98% | good activity | good activity |  | 1.65 | 100% | good activity | 100% |  | Kill rate after 7d in % ([1]; 4 ppm): 100%; Kill rate after 7d in % ([3]; 4 ppm): 100%; Kill rate after 7d in % ([5]; 4 ppm): 100%; Kill rate after 7d in % ([7]; 4 ppm): 100%
5 | Cc1cc(I)cc(C2=NOCCN2)c1NC(=O)c1cc(Br)cn1-c1ncccc1Cl [Example I-1-22] |  | good activity |  | good activity |  |  |  | good activity | 100% | 2.39 | 100% | good activity | 100% | 100% | 
6 | Cc1cc(I)cc(C2=NOCCN2)c1NC(=O)c1cc(Br)nn1-c1ncccc1Cl [Example I-1-23] |  | good activity |  | good activity |  |  |  | good activity | 100% | 2.21 | 100% | good activity | 90% | 100% | 
7 | Cc1cc(I)cc(C2=NOCCN2)c1NC(=O)c1cc(C(F)(F)F)nn1-c1ncccc1Cl [Example I-1-24] |  | good activity |  | good activity |  |  |  | good activity | 100% | 2.66 | 100% | good activity | 90% | 100% | 
